Values belong to the compound of their own block, whether it stands above or below them.
Columns and labels:
[1] = In vitro stability in liver microsomes, cynomolgus monkeys; assay type: in vitro ADME; conditions: 0.5 mg/mL
Procedure: Purpose of the assay: Metabolic stabilities of the assay compounds in liver microsomes of CD-1 mice, SD rats, beagle dogs, cynomolgus monkeys, and human were assayed, respectively.
Procedure of the assay: Two 96-well incubation plates were prepared and named T60 incubation plate and NCF60 incubation plate, respectively. 445 μL of microsomal working solutions (liver microsomal protein concentration of 0.56 mg/mL) were added to the T60 incubation plate and the NCF60 incubation plate, respectively, and then the above incubation plates were pre-incubated in a 37° C. water bath for about 10 minutes.
After the pre-incubation, 5 μL of working solutions of the assay sample or the control compound were added to the T60 incubation plate and the NCF60 incubation plate, respectively, and the mixture was mixed well. 50 μL of potassium phosphate buffer was added to each well of the NCF60 incubation plate to initiate the reaction. 180 μL of stop solution (200 ng/mL tolbutamide and 200 ng/mL labetalol in acetonitrile) and 6 uL of NADPH regeneration system working solution were added to the T0 stop plate, and 54 μL of sample was transferred from T60 incubation plate to T0 stop plate (generation of TO sample). The reaction was initiated by adding 44 μL of NADPH regeneration system working solution to each well of the T60 incubation plate. Only 54 μL of microsome working solution, 6 uL of NADPH regeneration system working solution and 180 μL of stop solution were added to the Blank plate. Therefore, in samples of the assay compound or the control compound, the final reaction concentration of compound, testosterone, diclofenac and propafenone was 1 μM, the concentration of liver microsomes was 0.5 mg/mL, and the final reaction concentrations of DMSO and acetonitrile in the reaction system were 0.01% (v/v) and 0.99% (v/v), respectively.
After an appropriate time (e.g., 5, 15, 30, 45 and 60 minutes) of incubation, 180 μL of stop solutions (200 ng/mL tolbutamide and 200 ng/mL labetalol in acetonitrile) were added to the sample wells of each stop plate, respectively. 60 μL of sample was removed from the T60 incubation plate to stop the reaction. All sample plates were shaken well and then centrifuged at 3220×g for 20 minutes. Then 80 μL of supernatant was taken out from each well, and diluted in 240 μL of pure water for liquid chromatography-tandem mass spectrometry analysis. All samples were injected and analyzed by liquid chromatography-tandem mass spectrometry.

[2] = Pharmacokinetics by oral administration and intravenous injection in SD rats; assay type: in vivo; conditions: for AUCu: AUC0-last × PPB(Unbound %); for Peak concentration, Cmax, u: Cmax × PPB(Unbound %); for Cmax: read-out: Peak concentration, Cmax; for Vd: SD, iv, 2 mg/kg
Procedure: 1) Assay on the Pharmacokinetics of the Assay Compounds by Oral Administration and Intravenous Injection in SD Rats
(§1) The assay compound was mixed with 500 dimethyl sulfoxide/95% (10% hydroxypropyl-β-cyclodextrin) solution. The mixture was vortexed and sonicated to prepare a 1 mg/mL clear solution, which was filtered through a microporous membrane for later use. Male SD rats aged 7 to 10 weeks were selected, and administered candidate compound solutions intravenously or orally. Whole blood was collected for a certain period of time, and prepared to obtain plasma. Drug concentration was analyzed by LC-MS/MS method, and pharmacokinetic parameters were calculated by Phoenix WinNonlin software (Pharsight, USA).

[3] = Pharmacokinetics by oral administration and intravenous injection in CD mice; assay type: in vivo; conditions: for AUCu: AUC0-last × PPB(Unbound %); for Peak concentration, Cmax, u: Cmax × PPB(Unbound %); for Cmax: read-out: Peak concentration, Cmax; for Vd: CD, iv, 2.39 mg/kg
Procedure: 2) Assay on the Pharmacokinetics of the Assay Compounds by Oral Administration and Intravenous Injection in CD Mice
as §1, with “5%” for “500”, “CD mice” for “SD rats”

[4] = intravenous injection, 2.0 mg/kg
[5] = oral, 9.7 mg/kg (8B), 9.8 mg/kg (17)
[6] = intravenous injection, 2.39 mg/kg (17), 2.0 mg/kg (8B)
[7] = oral, 14.7 mg/kg (17), 10.3 mg/kg (8B)
[8] = male, rat, plasma, oral, 9.7 mg/kg (8B), 9.8 mg/kg (17)
[9] = male, mouse, plasma, oral, 14.7 mg/kg (17), 10.3 mg/kg (8B)

CLint(liver) ([1]; 1 μM): 80.3 mL/min/kg | CLint(mic) ([1]; 1 μM): 59.5 µL/min/mg | T1/2 ([1]; 1 μM): 0.388 h | AUC0-last [2, 4]: 0.544 µM·h | Apparent volume of distribution, Vdss [2, 4]: 17.9 L/kg | Clearance rate, CL [2, 4]: 85.2 mL/min/kg | Half-life period, T1/2 [2, 4]: 2.8 h | AUCu [2, 4]: 0.0533 µM·h | Apparent volume of distribution, Vdss, u ([2]; intravenous injection, 2.0 mg/kg, Vdss/PPB(Unbound %)): 203 L/kg | AUC0-last [2, 5]: 1.211 µM·h | Bioavailability F [2, 5]: 44.5% | Time-to-peak, Tmax [2, 5]: 1.5 h | AUCu [2, 5]: 0.119 µM·h | Peak concentration, Cmax, u [2, 5]: 21.3 nM | Cmax [2, 5]: 218 nM | AUC0-last [3, 6]: 1.297 µM·h | Apparent volume of distribution, Vdss [3, 6]: 3.9 L/kg | Clearance rate, CL [3, 6]: 40.6 mL/min/kg | Half-life period, T1/2 [3, 6]: 1.7 h | AUCu [3, 6]: 0.1556 µM·h | Apparent volume of distribution, Vdss, u ([3]; intravenous injection, 2.39 mg/kg (17), 2.0 mg/kg (8B), Vdss/PPB(Unbound %)): 32.3 L/kg | AUC0-last [3, 7]: 1.422 µM·h | Bioavailability F [3, 7]: 21.9% | Time-to-peak, Tmax [3, 7]: 1.0 h | AUCu [3, 7]: 0.1706 µM·h | Peak concentration, Cmax, u [3, 7]: 51.7 nM | Cmax [3, 7]: 431 nM
SMILES: C=C(F)C(=O)N1CCN(c2nc(OCC3CCCN3C)nc3c2COC(c2c(F)c(N)cc(C)c2C(F)(F)F)C3)CC1CC#N.Cl (single isomer, unassigned) [Compound 8B hydrochloride]

SMILES: C=C(F)C(=O)N1CCN(c2nc(OC[C@@]34CCCN3C[C@H](F)C4)nc3c2COC(c2c(F)c(N)cc(C)c2C(F)(F)F)C3)C[C@@H]1CC#N (stereo partly drawn) [Compound 17]
CLint(mic) ([1]; 1 μM): 225 µL/min/mg | CLint scaled at 1 μM ([1]; cynomolgus monkey): 303 mL/min/kg | half-life at 1 μM ([1]; cynomolgus monkey): 6.2 min | AUCu [2, 4]: 0.0313 µM·h | Vd ([2]; male, rat, plasma, intravenous injection, 2.0 mg/kg, Vdss/PPB(Unbound %), read-out: Apparent volume of distribution, Vdss, u): 221 L/kg | Vd ([2]; male, rat, plasma, intravenous injection, 2.0 mg/kg, read-out: Apparent volume of distribution, Vdss): 10.6 L/kg | AUC(0-t) ([2]; male, rat, plasma, intravenous injection, 2.0 mg/kg): 0.653 µM·h | clearance ([2]; male, rat, plasma, intravenous injection, 2.0 mg/kg, read-out: Clearance rate, CL): 71.5 mL/min/kg | half-life ([2]; male, rat, plasma, intravenous injection, 2.0 mg/kg, read-out: Half-life period, T1/2 (converted)): 1.9 h | AUC(0-t) [2, 8]: 0.995 µM·h | bioavailability ([2]; male, rat, plasma, oral, 9.7 mg/kg (8B), 9.8 mg/kg (17), read-out: Bioavailability F): 30.5% | Cmax [2, 8]: 220 nM | Tmax ([2]; male, rat, plasma, oral, 9.7 mg/kg (8B), 9.8 mg/kg (17), read-out: Time-to-peak, Tmax): 1.5 h | AUCu [2, 5]: 0.0478 µM·h | Peak concentration, Cmax, u [2, 5]: 10.6 nM | AUCu [3, 6]: 0.0202 µM·h | Vd ([3]; male, mouse, plasma, intravenous injection, 2.39 mg/kg (17), 2.0 mg/kg (8B), Vdss/PPB(Unbound %), read-out: Apparent volume of distribution, Vdss, u): 169 L/kg | Vd ([3]; male, mouse, plasma, intravenous injection, 2.39 mg/kg (17), 2.0 mg/kg (8B), read-out: Apparent volume of distribution, Vdss): 2.6 L/kg | AUC(0-t) ([3]; male, mouse, plasma, intravenous injection, 2.39 mg/kg (17), 2.0 mg/kg (8B)): 1.31 µM·h | clearance ([3]; male, mouse, plasma, intravenous injection, 2.39 mg/kg (17), 2.0 mg/kg (8B), read-out: Clearance rate, CL): 37.3 mL/min/kg | half-life ([3]; male, mouse, plasma, intravenous injection, 2.39 mg/kg (17), 2.0 mg/kg (8B), read-out: Half-life period, T1/2 (converted)): 1 h | AUC(0-t) [3, 9]: 2.4 µM·h | bioavailability ([3]; male, mouse, plasma, oral, 14.7 mg/kg (17), 10.3 mg/kg (8B), read-out: Bioavailability F): 24.4% | Cmax [3, 9]: 1460 nM | Tmax ([3]; male, mouse, plasma, oral, 14.7 mg/kg (17), 10.3 mg/kg (8B), read-out: Time-to-peak, Tmax): 0.25 h | AUCu [3, 7]: 0.037 µM·h | Peak concentration, Cmax, u [3, 7]: 22.5 nM

Source: patent publication US12012404B2, “Pyrimidoheterocyclic compounds and application thereof” (D3 BIO (WUXI) CO., LTD., priority 2020, dated 2024)
